In US20250011318A1 (ARCUS BIOSCIENCES, INC., priority 2023, published 2025):

Key:
[1] = tested on: Jurkat cells; experiment: IL-2 secretion assay in CD3/CD28-activated Jurkat cells (AlphaLISA); assay type: cell-based, human; conditions: Homo sapiens, CD3/CD28 T Cell Activator, 24 h, IL-2 AlphaLISA
Outline: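 IL-2 release quantified by AlphaLISA in supernatants after 24 h CD3/CD28 activation at 37° C. Compounds, 10 μM to 300 pM final in 1:2 steps, were added to 50,000 Jurkat cells/well 1 h before activation; 4-parameter fit gave EC50.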

[2] = target: T1, Cbl-b (Homo sapiens, UniProt Q13191); experiment: Cbl-b probe displacement HTRF binding assay; conditions: 0.4 nM biotinylated Cbl-b, 150 nM BODIPY probe
T1 construct: biotin (biotinylated)
T1 sequence (Q13191 whole entry, species assumed): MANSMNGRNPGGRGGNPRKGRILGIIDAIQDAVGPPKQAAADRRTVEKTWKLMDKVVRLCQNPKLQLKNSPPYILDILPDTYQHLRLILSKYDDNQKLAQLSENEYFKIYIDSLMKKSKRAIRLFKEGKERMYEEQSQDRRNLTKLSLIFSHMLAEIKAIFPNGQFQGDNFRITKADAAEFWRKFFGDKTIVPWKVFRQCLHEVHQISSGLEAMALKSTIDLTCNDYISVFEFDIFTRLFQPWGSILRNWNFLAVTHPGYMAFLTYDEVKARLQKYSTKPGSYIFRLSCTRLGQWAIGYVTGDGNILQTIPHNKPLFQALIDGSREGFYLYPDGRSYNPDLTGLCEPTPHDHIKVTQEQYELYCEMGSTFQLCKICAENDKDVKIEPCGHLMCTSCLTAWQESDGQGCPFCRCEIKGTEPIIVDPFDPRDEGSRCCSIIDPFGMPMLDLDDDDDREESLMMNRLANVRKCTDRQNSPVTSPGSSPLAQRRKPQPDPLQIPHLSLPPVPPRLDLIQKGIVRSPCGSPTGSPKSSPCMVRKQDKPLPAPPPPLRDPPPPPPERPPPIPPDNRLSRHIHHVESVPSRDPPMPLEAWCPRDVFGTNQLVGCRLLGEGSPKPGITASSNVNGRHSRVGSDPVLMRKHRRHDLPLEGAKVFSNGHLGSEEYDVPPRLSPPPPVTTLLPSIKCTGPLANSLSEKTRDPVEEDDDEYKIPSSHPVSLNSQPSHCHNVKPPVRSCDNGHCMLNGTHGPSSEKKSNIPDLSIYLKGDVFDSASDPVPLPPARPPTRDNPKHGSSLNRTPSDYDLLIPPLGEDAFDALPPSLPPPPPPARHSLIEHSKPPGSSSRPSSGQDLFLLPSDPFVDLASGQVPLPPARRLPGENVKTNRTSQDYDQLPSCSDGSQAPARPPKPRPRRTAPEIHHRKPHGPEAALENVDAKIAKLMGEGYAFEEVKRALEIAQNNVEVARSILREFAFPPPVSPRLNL
Outline: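 Probe-displacement HTRF in Hepes/NaCl/Triton/TCEP/BSA buffer at room temperature: compound dilutions (to 10 μM) incubated 60 min with 0.4 nM biotin-Cbl-b, 150 nM BODIPY probe added for 15 min, Tb-streptavidin read. Signal normalised to DMSO and no-protein controls; IC50 from four-parameter curve.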

## Cn1cc(C#N)nc1-c1cc(C#N)ccc1-c1cc(C2CC2)nc(-n2cnc3cc(CNC4(C)CCC4)[nH]c3c2=O)c1 [Example 115, 2-[5-cyano-2-[2-cyclopropyl-6-[6-[[(1-methylcyclobutyl)amino]methyl]-4-oxo-5H-pyrrolo[3,2-d]pyrimidin-3-yl]pyridin-4-yl]phenyl]-1-methylimidazole-4-carbonitrile]
[1]
  EC50: < 100 nM
[2]
  IC50: < 100 nM

## CC(=O)N1CCC[C@H]1c1nc2c(C(F)(F)F)cn(-c3cc(-c4ccc(F)cc4-c4nncn4C)cc(C4CC4)n3)c(=O)c2[nH]1 [Example 45, 2-[(2S)-1-acetylpyrrolidin-2-yl]-5-[6-cyclopropyl-4-[4-fluoro-2-(4-methyl-1,2,4-triazol-3-yl)phenyl]pyridin-2-yl]-7-(trifluoromethyl)-3H-imidazo[4,5-c]pyridin-4-one]
[1]
  EC50: 100 to 1000 nM
[2]
  IC50: < 100 nM

## CO[C@H]1CCCN(Cc2cc3c(C4CC4)cn(-c4cc(-c5ccc(F)cc5-c5nccn5C)cc(C5CC5)n4)c(=O)c3[nH]2)C1 [Example 61, 2-{[(S)-3-methoxy-1-piperidyl]methyl}-4-cyclopropyl-6-{6-cyclopropyl-4-[4-fluoro-2-(1-methyl-2-imidazolyl)phenyl]-2-pyridyl}-1,6-dihydro-1,6-diaza-7-indenone]
[1]
  EC50: 100 to 1000 nM
[2]
  IC50: < 100 nM

## C[C@H]1CCCN(Cc2cc3c(C4CC4)cn(-c4cc(-c5ccc(F)cc5-c5ncnn5C)cc(C5CC5)n4)c(=O)c3[nH]2)C1 [Example 119, 4-Cyclopropyl-6-[6-cyclopropyl-4-[4-fluoro-2-(2-methyl-1,2,4-triazol-3-yl)phenyl]pyridin-2-yl]-2-[[(3S)-3-methylpiperidin-1-yl]methyl]-1H-pyrrolo[2,3-c]pyridin-7-one]
[1]
  EC50: 100 to 1000 nM
[2]
  IC50: < 100 nM

## Cc1cnnn1-c1cc(F)ccc1-c1cc(C2CC2)nc(-n2cc(C(F)(F)F)c3nc(C4CC4)[nH]c3c2=O)c1 [Example 133, 2-cyclopropyl-5-{6-cyclopropyl-4-[4-fluoro-2-(5-methyl-1H-1,2,3-triazol-1-yl)phenyl]-2-pyridyl}-7-(trifluoromethyl)-3,5-dihydro-1,3,5-triaza-4-indenone]
[1]
  EC50: 100 to 1000 nM
[2]
  IC50: < 100 nM

## CCn1ccnc1-c1cc(F)ccc1-c1cc(C2CC2)nc(-n2cc(C3CC3)c3cc(CN4CCO[C@H](C)C4)[nH]c3c2=O)c1 [Example 64, 2-{[(R)-2-methyl-4-morpholinyl]methyl}-4-cyclopropyl-6-{6-cyclopropyl-4-[2-(1-ethyl-2-imidazolyl)-4-fluorophenyl]-2-pyridyl}-1,6-dihydro-1,6-diaza-7-indenone]
[1]
  EC50: 100 to 1000 nM
[2]
  IC50: < 100 nM

## Cc1ocnc1-c1cc(C#N)ccc1-c1cc(C2CC2)nc(-n2cc(C3CC3)c3cc(CNC4(C)CCC4)[nH]c3c2=O)c1 [Example 71, 4-(6-cyclopropyl-2-{4-cyclopropyl-2-[(1-methylcyclobutylamino)methyl]-7-oxo-1,6-dihydro-1,6-diaza-6-indenyl}-4-pyridyl)-3-(5-methyl-1,3-oxazol-4-yl)benzonitrile]
[1]
  EC50: < 100 nM
[2]
  IC50: < 100 nM

## C[C@H]1CCCN(Cc2cc3c(C4CC4)cn(-c4cc(-c5ccc(F)cc5-c5nncn5C)cc(O)n4)c(=O)c3[nH]2)C1 [Example 7, 2-{[(S)-3-methyl-1-piperidyl]methyl}-4-cyclopropyl-6-{4-[4-fluoro-2-(4-methyl-4H-1,2,4-triazol-3-yl)phenyl]-6-hydroxy-2-pyridyl}-1,6-dihydro-1,6-diaza-7-indenone]
[1]
  EC50: 1000 to 5000 nM
[2]
  IC50: 100 to 1000 nM

## COCCNCc1cc2ncn(-c3cc(-c4ccc(F)cc4-c4ncnn4C)cc(C4CC4)n3)c(=O)c2[nH]1 [Example 118, 3-[6-cyclopropyl-4-[4-fluoro-2-(2-methyl-1,2,4-triazol-3-yl)phenyl]-pyridin-2-yl]-6-[(2-methoxyethylamino)methyl]-5H-pyrrolo[3,2-d]pyrimidin-4-one]
[1]
  EC50: 100 to 1000 nM
[2]
  IC50: < 100 nM

## CC(c1cc2c(C3CC3)cn(-c3cc(-c4ccc(C#N)cc4-c4nccn4C)cc(C4CC4)n3)c(=O)c2[nH]1)N1CCC[C@H](C)C1 (mixture of isomers) [Example 100, 4-[2-(2-{1-[(S)-3-methyl-1-piperidyl]ethyl}-4-cyclopropyl-7-oxo-1,6-dihydro-1,6-diaza-6-indenyl)-6-cyclopropyl-4-pyridyl]-3-(1-methyl-2-imidazolyl)benzonitrile]
[1]
  EC50: < 100 nM
[2]
  IC50: < 100 nM

## Cn1cnnc1-c1cc(F)ccc1-c1cc(C2CC2)nc(-n2cc(C(F)(F)F)c3nc(C4CCC4)[nH]c3c2=O)c1 [Example 40, 2-Cyclobutyl-5-[6-cyclopropyl-4-[4-fluoro-2-(4-methyl-1,2,4-triazol-3-yl)phenyl]pyridin-2-yl]-7-(trifluoromethyl)-3H-imidazo[4,5-c]pyridin-4-one]
[1]
  EC50: < 100 nM
[2]
  IC50: < 100 nM

## C[C@H]1CCCN(Cc2cc3c(C4CC4)cn(-c4cc(-c5ccc(C#N)cc5-c5nncn5C(F)F)cc(C5CC5)n4)c(=O)c3[nH]2)C1 [Example 69, 4-[2-(2-{[(S)-3-methyl-1-piperidyl]methyl}-4-cyclopropyl-7-oxo-1,6-dihydro-1,6-diaza-6-indenyl)-6-cyclopropyl-4-pyridyl]-3-[4-(difluoromethyl)-4H-1,2,4-triazol-3-yl]benzonitrile]
[1]
  EC50: < 100 nM
[2]
  IC50: < 100 nM

## Cn1ccnc1-c1cc(F)ccc1-c1cc(C2CC2)nc(-n2cc(C3CC3)c3cc(CN4C[C@H]5C[C@@H]4CO5)[nH]c3c2=O)c1 [Example 60, 2-({(1R,4R)-2-oxa-5-azabicyclo[2.2.1]hept-5-yl}methyl)-4-cyclopropyl-6-{6-cyclopropyl-4-[4-fluoro-2-(1-methyl-2-imidazolyl)phenyl]-2-pyridyl}-1,6-dihydro-1,6-diaza-7-indenone]
[1]
  EC50: 100 to 1000 nM
[2]
  IC50: < 100 nM

## COc1cc(-c2ccc(F)cc2-c2nncn2C)cc(-n2cc(C3CC3)c3cc(CN4CCC[C@H](C)C4)[nH]c3c2=O)n1 [Example 8, 2-{[(S)-3-Methyl-1-piperidyl]methyl}-4-cyclopropyl-6-{4-[4-fluoro-2-(4-methyl-4H-1,2,4-triazol-3-yl)phenyl]-6-methoxy-2-pyridyl}-1,6-dihydro-1,6-diaza-7-indenone]
[1]
  EC50: < 100 nM
[2]
  IC50: < 100 nM

## Cn1ccnc1-c1cc(F)ccc1-c1cc(C2CC2)nc(-n2cc(C3CC3)c3cc(CN4C[C@@H]5CC[C@H]4C5)[nH]c3c2=O)c1 [Example 56, 2-({(1S,4R)-2-azabicyclo[2.2.1]hept-2-yl}methyl)-4-cyclopropyl-6-{6-cyclopropyl-4-[4-fluoro-2-(1-methyl-2-imidazolyl)phenyl]-2-pyridyl}-1,6-dihydro-1,6-diaza-7-indenone]
[1]
  EC50: 100 to 1000 nM
[2]
  IC50: < 100 nM

## C[C@H]1CCCN(Cc2cc3c(C4CC4)cn(-c4cc(-c5ccc(F)cc5-c5nncn5C)ccn4)c(=O)c3[nH]2)C1 [Example 12, 2-{[(S)-3-Methyl-1-piperidyl]methyl}-4-cyclopropyl-6-{4-[4-fluoro-2-(4-methyl-4H-1,2,4-triazol-3-yl)phenyl]-2-pyridyl}-1,6-dihydro-1,6-diaza-7-indenone]
[1]
  EC50: 100 to 1000 nM
[2]
  IC50: < 100 nM

## Cc1cccc(C(N)c2cc3c(C#N)cn(-c4cc(-c5ccc(F)cc5-c5nncn5C)cc(C5CC5)n4)c(=O)c3[nH]2)n1 (centres unmarked) [Example 95, 2-[amino(6-methyl-2-pyridyl)methyl]-6-{6-cyclopropyl-4-[4-fluoro-2-(4-methyl-4H-1,2,4-triazol-3-yl)phenyl]-2-pyridyl}-7-oxo-1,6-dihydro-1,6-diaza-4-indenecarbonitrile]
[1]
  EC50: 100 to 1000 nM
[2]
  IC50: < 100 nM

## Cn1cnnc1-c1cc(F)ccc1-c1cc(C2CC2)nc(-n2cc(C#N)c3cc([C@H](N)C(F)(F)F)[nH]c3c2=O)c1 [Example 98, 2-[(S)-1-amino-2,2,2-trifluoroethyl]-6-{6-cyclopropyl-4-[4-fluoro-2-(4-methyl-4H-1,2,4-triazol-3-yl)phenyl]-2-pyridyl}-7-oxo-1,6-dihydro-1,6-diaza-4-indenecarbonitrile]
[1]
  EC50: < 100 nM
[2]
  IC50: < 100 nM

## CC1(NCc2cc3c(C4CC4)cn(-c4cc(-c5ccc(C#N)cc5-c5nncn5C(F)F)cc(C5CC5)n4)c(=O)c3[nH]2)CCC1 [Example 68, 4-(6-cyclopropyl-2-{4-cyclopropyl-2-[(1-methylcyclobutylamino)methyl]-7-oxo-1,6-dihydro-1,6-diaza-6-indenyl}-4-pyridyl)-3-[4-(difluoromethyl)-4H-1,2,4-triazol-3-yl]benzonitrile]
[1]
  EC50: < 100 nM
[2]
  IC50: < 100 nM

## C[C@@H](c1nc2c(C(F)(F)F)cn(-c3cc(-c4ccc(F)cc4-c4nncn4C)cc(C4CC4)n3)c(=O)c2[nH]1)C1CC1 [Example 46, 2-[(1R)-1-cyclopropylethyl]-5-[6-cyclopropyl-4-[4-fluoro-2-(4-methyl-1,2,4-triazol-3-yl)phenyl]pyridin-2-yl]-7-(trifluoromethyl)-3H-imidazo[4,5-c]pyridin-4-one]
[1]
  EC50: < 100 nM
[2]
  IC50: < 100 nM

## Cn1cnnc1-c1cc(F)ccc1-c1cc(C2CC2)nc(-n2cc(C(F)(F)F)c3cc[nH]c3c2=O)c1 [Example 141, 6-[6-cyclopropyl-4-[4-fluoro-2-(4-methyl-1,2,4-triazol-3-yl)phenyl]pyridin-2-yl]-4-(trifluoromethyl)-1H-pyrrolo[2,3-c]pyridin-7-one]
[1]
  EC50: < 100 nM
[2]
  IC50: < 100 nM

## Cn1cnnc1-c1cc(F)ccc1-c1cc(C2CC2)nc(-n2cnc3cc(C(F)F)[nH]c3c2=O)c1 [Example 128, 3-[6-cyclopropyl-4-[4-fluoro-2-(4-methyl-1,2,4-triazol-3-yl)phenyl]-pyridin-2-yl]-6-(difluoromethyl)-5H-pyrrolo[3,2-d]pyrimidin-4-one]
[1]
  EC50: 100 to 1000 nM
[2]
  IC50: < 100 nM
